The conditions of series [1]: solvents named in the value; cited from earlier work.
The subject of the next series is cancer cell models. To be noted: literature reports; cited from earlier work.
Series [2] has as its system human acute leukemia cell line (HL-60). Put plainly: CellTiter-Glo cell viability assay, single agent growth inhibition. Format: cell-based. As to conditions: HL-60, 72 hours treatment. The protocol:
Cell viability in the presence of varying concentrations of the benzamide compounds at different time points was used to assess cytotoxicity and the effect of the compounds on cell proliferation.
Cell Viability Assay-Cell viability was measured by the CellTiter-Glo® cell viability assay Promega (Madison, Wis.). The CellTiter-Glo® Luminescent Cell Viability Assay is a homogeneous method to determine the number of viable cells in culture based on quantitation of the ATP present, which signals the presence of metabolically active cells. Following treatment, CellTiter-Glo® is added to treatment wells and incubated at 37° C. luminescence values were measured at using a Molecular Devices Spectramax microplate reader.
Single Agent Studies—Cells were grown to 70% confluency, trypsinized, counted, and seeded in 96 well flat-bottom plates at a final concentration of 2.5×10^3-5×10^3 cells/well (Day 0). Cells were allowed to incubate in growth media for 24 hours to allow for maximum adhesion. Treatment with the test agents or standard agents began on Day 1 and continued for 72 hours. At the 72-hour time point, treatment containing media was removed. Viable cell numbers are quantified by the CellTiter-Glo® cell viability assay as described above. Experiments were run with triplicate concentrations to determine growth inhibitory activity. Results from these studies were used to calculate an IC50 value (concentration of drug that inhibits cell growth by 50 percent of control) for each compound.
Data Collection—For single agent and combination studies, data from each experiment was collected and expressed as % Cell Growth using the following calculation: % Cell Growth=(ftest/fvehicle)×100
Where ftest is the luminescence of the tested sample, and fvehicle is the luminescence of the vehicle in which the drug is dissolved. Dose response graphs and IC50 values were generated using Prism 6 software (GraphPad).
On the technique in general: ATP-based viability assays read luminescence as a measure of living cells.

For series [3], the system named is intratumoral CD8 T-cells and natural killer cells. Put plainly: Intratumoral immune cells in tumor bearing mice. The series is classed as in vivo.
The next series concerns CT-26 murine colon tumor. The experiment in a line: CT-26 tumor volume growth, ID #24 and anti-4-1BB. Format: in vivo. As to conditions: Anti-m4-1BB 0.05 mg/kg IP QDx1, in mm³.

Each structure is given as a SMILES string. “And” between values parts separate entries of the source, which are not always exact repeats. Equal entries are not always repeated. “Also recorded” adds a separate entry of the source.

`Nc1ncn([C@@H]2O[C@H](CO)[C@@H](O)[C@H]2O)c(=O)n1` [Azacitidine, 4-amino-1-β-D-ribofuranozyl-s-triazin-2(1H)-one]: in series [1], the solubility result was “insoluble in acetone, ethanol and methyl ketone; also recorded: slightly soluble in ethanol/water (50/50), propylene glycol and polyethylene glycol; also recorded: sparingly soluble in water, water-saturated octanol, 5% dextrose in water, N-methyl-2-pyrrolidone, normal saline and 5% Tween 80 in water; also recorded: soluble in dimethylsulfoxide (DMSO)”.

Consider `Nc1ncn([C@H]2C[C@H](O)[C@@H](CO)O2)c(=O)n1` [Decitabine, 4-amino-1-(2-deoxy-β-D-erythro-pentofuranosyl)-1,3,5-triazin-2(1H)one], for which the “effects on cancer cells” value in the series with cancer cell models was “suppression of growth and apoptosis; also recorded: causes G2 arrest, reduces clonogenic survival, and inhibits growth in cells”. In addition, in series [1], the solubility entry was “slightly soluble in ethanol/water (50/50), methanol/water (50/50) and methanol; also recorded: sparingly soluble in water; also recorded: soluble in dimethylsulfoxide (DMSO)”.

As usually defined, the IC50 is the concentration that inhibits the measured activity by half. Take `O=C(NO)c1ccc(Nc2nc3ccccc3n2CC2CCCCC2)cc1` [ID #24, 4-(1-(cyclohexylmethyl)-1H-benzo[d]imidazol-2-ylamino)-N-hydroxybenzamide]: the IC50 in series [2] was determined as 1150 nM. Further, the “numbers of intratumoral CD8 T-cells and natural killer cells” value in series [3] is “increased numbers of intratumoral CD8 T-cells and natural killer cells”. In addition, the “tumor volume, individual animal (ID 001-005)” value is 85 with CT-26 murine colon tumor (Day 1, Example #24 150.00 mg/kg PO QD to end); 73 in the series on CT-26 murine colon tumor (Day 5, Example #24 150.00 mg/kg PO QD to end); 65 in the series on CT-26 murine colon tumor (Day 8, Example #24 150.00 mg/kg PO QD to end); 65 with CT-26 murine colon tumor (Day 9, Example #24 150.00 mg/kg PO QD to end); 68 and 590 in the series with CT-26 murine colon tumor (Day 12, Example #24 150.00 mg/kg PO QD to end); 67 with CT-26 murine colon tumor (Day 14, Example #24 150.00 mg/kg PO QD to end).

As to `O=C(NO)c1ccc(Nc2nc3ccccc3n2C2CCCCC2)cc1` [ID #25, 4-(1-cyclohexyl-1H-benzo[d]imidazol-2-ylamino)-N-hydroxybenzamide], the IC50 in series [2] stood at 3900 nM.

For `O=C(NO)c1ccc(Nc2nc3ccccc3n2C2CCCCCC2)cc1` [ID #26, 4-(1-cycloheptyl-1H-benzo[d]imidazol-2-ylamino)-N-hydroxybenzamide], the 50% inhibitory concentration (IC50) in series [2] was 660 nM.

The values are drawn from patent publication US10780080B2, “Benzamide and active compound compositions and methods of use” (TRANSLATIONAL DRUG DEVELOPMENT, LLC, priority 2016, dated 2020).
